Source: US20260234125A1, “CYCLIC AMINE DERIVATIVE, AND COMPOSITION AND USE THEREOF” (SHANGHAI JINGXIN BIOMEDICAL CO., LTD., priority 2023, published 2026)

Key:
[1] = system: Salmonella typhimurium TA98; test: Salmonella typhimurium reverse mutation test, TA98; format: cell-based; design: key: + indicates a positive mutagenic result; − indicates a negative mutagenic result
Protocol: (§1) The revived strains or a single colony from the master plate were inoculated into the broth, and cultured in a thermostat gas bath vibrator at 100 to 120 rpm and 37±1° C. for 10 to 16 hours, marked and stored for later use. The bottom agar medium (containing an appropriate amount of agar, Vogel-Bonner buffer, 20% glucose solution and 20% magnesium sulfate solution) was poured into a six-well plate, approximately […] into each well, and allowed to cool and solidify naturally, marked each well and stored for later use.
(§2) Three wells were set up in each group for parallel experiments. The top agar medium was sterilized under high pressure and kept warm at about 65° C. In each test tube, 0.1 mL of negative control (DMSO) or positive control or test sample, 0.1 mL of bacterial solution suspension, 0.5 mL of phosphate buffer (0.2M PBS) (−S9) or 0.5 mL of S9 mixed solution (+S9) and 2.5 mL top culture medium were added, after vortex mixing, and then quickly and evenly spread on the culture dish which was already spreaded with the bottom agar medium. After natural cooling and solidification, the culture dish was inverted and placed in a 37° C. incubator for 48 to 72 hours. After culturing for 48 to 72 hours, the culture dish was taken out, and the number of revertant colonies in each well was counted, the growth background was observed under a microscope to determine whether there was antibacterial or bactericidal activity, and the experimental results were recorded.

[2] = target: T1, hERG potassium channel (Homo sapiens, UniProt Q12809); test: hERG whole-cell patch clamp experiment; format: cell-based; conditions: HEK-293 cells that express hERG, HEK-293-hERG cell, read-out: inhibition rate
T1 construct: expressed in transfected cells; host or cells: HEK-293-hERG cells
Protocol: • 1. Experimental purpose: The purpose of this test is to test the inhibition rate of the compounds on the hERG potassium channel • 2. Experimental methods: The hERG current was recorded using the whole-cell patch clamp technique. A suspension of HEK-293-hERG cell was added to a small culture dish and placed on an inverted microscope stage. After the cells adhered to the dish, extracellular fluid was perfused at a flow rate of 1-2 mL/minute. The glass microelectrode was pulled in two steps by a microelectrode puller, after the electrode was filled with internal fluid, its water resistance was 2-5 MΩ. After establishing the whole-cell recording mode, the holding potential was maintained at −80 mV. A depolarizing voltage to +60 mV was applied for 850 ms, and then followed by repolarization to −50 mV for 1275 ms to elicit the hERG tail current. This set of pulse programs was repeated every 15 seconds throughout the experiment. After the current stabilized, the test compound was administered via continuous extracellular perfusion from low concentration to high concentration. Starting from a low concentration, perfusion was continued until the drug effect was stable, and then the next concentration was perfused.

[3] = system: Salmonella typhimurium TA1535; test: Salmonella typhimurium reverse mutation test, TA1535; format: cell-based; design: key: + indicates a positive mutagenic result; − indicates a negative mutagenic result
Protocol: as §1, §2

[4] = Exposure determination in beagle dogs; format: in vivo; conditions: dog, single oral gavage 4.5 mg/kg, plasma
Protocol: • 1. Experimental purpose: The purpose of this test is to test the exposure of the compound in beagle dogs • 2. Experimental methods: Beagle dogs were housed with a standard light cycle (12 hours light/12 hours dark), at a room temperature of 18-26° C. and a relative humidity of 40-70%, with free access to water and normal diet. Five days prior to the study, the beagle dogs were randomly assigned to groups based on their body weight for the study, including an oral administration group (n=3/group). The administration volume was calculated according to the weight of the animals on the day of administration, and the administration volume was 5 mL/kg, the single oral gavage administration was performed at a dose of 4.5 mg/kg, and the solvent was 1% HEC and 0.25% Tween 80 in Water. Blood was collected from the forelimb vein or other suitable veins at 0.5 h, 1 h, 2 h, 4 h, 6 h, 8 h, 12 h, 24 h, 48 h, 72 h and 96 h after administration. About 1 mL of each sample was collected, K2-EDTA anticoagulated, placed on ice after collection, and within 1 hour, centrifuged to separate plasma (centrifugation conditions: 2200 g, 10 minutes, 2-8° C.) for blood drug concentration detection.

[5] = system: Salmonella typhimurium TA1537; test: Salmonella typhimurium reverse mutation test, TA1537; format: cell-based; design: key: + indicates a positive mutagenic result; − indicates a negative mutagenic result
Protocol: as §1, §2

[6] = system: Salmonella typhimurium TA100; test: Salmonella typhimurium reverse mutation test, TA100; format: cell-based; design: key: + indicates a positive mutagenic result; − indicates a negative mutagenic result
Protocol: as §1, §2

[7] = system: Salmonella typhimurium TA102; test: Salmonella typhimurium reverse mutation test, TA102; format: cell-based; design: key: + indicates a positive mutagenic result; − indicates a negative mutagenic result
Protocol: as §1, §2

T1 sequence (Q12809 whole entry): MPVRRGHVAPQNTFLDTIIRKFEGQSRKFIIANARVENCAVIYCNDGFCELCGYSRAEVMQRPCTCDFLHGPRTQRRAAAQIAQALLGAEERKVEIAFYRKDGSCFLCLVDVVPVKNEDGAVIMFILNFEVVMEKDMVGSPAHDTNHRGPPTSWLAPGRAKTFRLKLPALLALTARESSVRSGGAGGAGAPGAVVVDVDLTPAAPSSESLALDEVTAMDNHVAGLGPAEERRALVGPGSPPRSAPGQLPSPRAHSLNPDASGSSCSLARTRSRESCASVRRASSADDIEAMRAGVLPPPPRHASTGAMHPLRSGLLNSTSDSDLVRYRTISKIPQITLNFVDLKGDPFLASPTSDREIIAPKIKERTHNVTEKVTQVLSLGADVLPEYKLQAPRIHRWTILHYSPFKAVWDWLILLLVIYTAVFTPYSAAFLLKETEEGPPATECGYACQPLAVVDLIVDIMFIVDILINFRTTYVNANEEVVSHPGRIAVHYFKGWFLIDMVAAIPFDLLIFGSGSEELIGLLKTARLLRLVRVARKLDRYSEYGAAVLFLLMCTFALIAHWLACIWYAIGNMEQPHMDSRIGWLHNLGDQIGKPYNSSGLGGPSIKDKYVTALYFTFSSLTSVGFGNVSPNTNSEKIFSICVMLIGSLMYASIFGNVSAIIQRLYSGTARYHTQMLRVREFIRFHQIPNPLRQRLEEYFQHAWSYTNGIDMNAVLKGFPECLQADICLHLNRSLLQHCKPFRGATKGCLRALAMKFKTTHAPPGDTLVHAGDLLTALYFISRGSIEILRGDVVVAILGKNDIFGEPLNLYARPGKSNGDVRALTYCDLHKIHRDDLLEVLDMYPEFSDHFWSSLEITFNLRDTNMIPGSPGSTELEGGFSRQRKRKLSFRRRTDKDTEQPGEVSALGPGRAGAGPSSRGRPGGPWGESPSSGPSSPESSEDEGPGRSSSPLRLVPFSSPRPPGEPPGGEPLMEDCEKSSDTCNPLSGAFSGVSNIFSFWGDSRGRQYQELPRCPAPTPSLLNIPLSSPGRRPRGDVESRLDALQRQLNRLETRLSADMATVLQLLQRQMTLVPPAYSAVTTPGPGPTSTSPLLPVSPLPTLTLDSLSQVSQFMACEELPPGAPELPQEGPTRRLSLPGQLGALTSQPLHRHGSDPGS

O=C(O)[C@@H](Cc1cccc(CN(Cc2cccc(C[C@H](C(=O)O)[C@H]3CCNC3)c2)Cc2cccc(C[C@H](C(=O)O)[C@H]3CCNC3)c2)c1)[C@H]1CCNC1 [Comparative Example 1, reference compound]
mutagenicity ([1]; TA98, +S9, 62 μg/dish): −
mutagenicity ([1]; TA98, +S9, 185 μg/dish): −
mutagenicity ([1]; TA98, +S9, 556 μg/dish): +
mutagenicity ([1]; TA98, +S9, 1667 μg/dish): +
mutagenicity ([1]; TA98, +S9, 5000 μg/dish): +
mutagenicity ([1]; TA98, −S9, 62 μg/dish): −
mutagenicity ([1]; TA98, −S9, 185 μg/dish): +
mutagenicity ([1]; TA98, −S9, 556 μg/dish): +
mutagenicity ([1]; TA98, −S9, 1667 μg/dish): +
mutagenicity ([1]; TA98, −S9, 5000 μg/dish): +
inhibition at 0.3 µM [2]: 7.37%
inhibition at 1 µM [2]: 24.6%
inhibition at 3 µM [2]: 29.2%
mutagenicity ([3]; TA1535, +S9, 62 μg/dish): −
mutagenicity ([3]; TA1535, +S9, 185 μg/dish): −
mutagenicity ([3]; TA1535, +S9, 556 μg/dish): −
mutagenicity ([3]; TA1535, +S9, 1667 μg/dish): −
mutagenicity ([3]; TA1535, +S9, 5000 μg/dish): −
mutagenicity ([3]; TA1535, −S9, 62 μg/dish): −
mutagenicity ([3]; TA1535, −S9, 185 μg/dish): −
mutagenicity ([3]; TA1535, −S9, 556 μg/dish): −
mutagenicity ([3]; TA1535, −S9, 1667 μg/dish): −
mutagenicity ([3]; TA1535, −S9, 5000 μg/dish): −
AUC(0-inf) [4]: 37400 ng·h/mL
mutagenicity ([5]; TA1537, +S9, 62 μg/dish): −
mutagenicity ([5]; TA1537, +S9, 185 μg/dish): −
mutagenicity ([5]; TA1537, +S9, 556 μg/dish): −
mutagenicity ([5]; TA1537, +S9, 1667 μg/dish): −
mutagenicity ([5]; TA1537, +S9, 5000 μg/dish): −
mutagenicity ([5]; TA1537, −S9, 62 μg/dish): −
mutagenicity ([5]; TA1537, −S9, 185 μg/dish): −
mutagenicity ([5]; TA1537, −S9, 556 μg/dish): −
mutagenicity ([5]; TA1537, −S9, 1667 μg/dish): −
mutagenicity ([5]; TA1537, −S9, 5000 μg/dish): −
mutagenicity ([6]; TA100, +S9, 62 μg/dish): −
mutagenicity ([6]; TA100, +S9, 185 μg/dish): −
mutagenicity ([6]; TA100, +S9, 556 μg/dish): −
mutagenicity ([6]; TA100, +S9, 1667 μg/dish): −
mutagenicity ([6]; TA100, +S9, 5000 μg/dish): −
mutagenicity ([6]; TA100, −S9, 62 μg/dish): −
mutagenicity ([6]; TA100, −S9, 185 μg/dish): −
mutagenicity ([6]; TA100, −S9, 556 μg/dish): −
mutagenicity ([6]; TA100, −S9, 1667 μg/dish): −
mutagenicity ([6]; TA100, −S9, 5000 μg/dish): −
mutagenicity ([7]; TA102, +S9, 62 μg/dish): −
mutagenicity ([7]; TA102, +S9, 185 μg/dish): −
mutagenicity ([7]; TA102, +S9, 556 μg/dish): −
mutagenicity ([7]; TA102, +S9, 1667 μg/dish): −
mutagenicity ([7]; TA102, +S9, 5000 μg/dish): −
mutagenicity ([7]; TA102, −S9, 62 μg/dish): −
mutagenicity ([7]; TA102, −S9, 185 μg/dish): −
mutagenicity ([7]; TA102, −S9, 556 μg/dish): −
mutagenicity ([7]; TA102, −S9, 1667 μg/dish): −
mutagenicity ([7]; TA102, −S9, 5000 μg/dish): −

O=C(O)[C@@H](Cc1cccc(CN(Cc2cccc(C[C@H](C(=O)O)[C@H]3CCNC3)c2)C(=O)c2cccc(C[C@H](C(=O)O)[C@H]3CCNC3)c2)c1)[C@H]1CCNC1 [Example 5]
mutagenicity ([1]; TA98, +S9, 62 μg/dish): −
mutagenicity ([1]; TA98, +S9, 185 μg/dish): −
mutagenicity ([1]; TA98, +S9, 556 μg/dish): −
mutagenicity ([1]; TA98, +S9, 1667 μg/dish): −
mutagenicity ([1]; TA98, +S9, 5000 μg/dish): −
mutagenicity ([1]; TA98, −S9, 62 μg/dish): −
mutagenicity ([1]; TA98, −S9, 185 μg/dish): −
mutagenicity ([1]; TA98, −S9, 556 μg/dish): −
mutagenicity ([1]; TA98, −S9, 1667 μg/dish): −
mutagenicity ([1]; TA98, −S9, 5000 μg/dish): −
inhibition at 0.3 µM [2]: -0.06%
inhibition at 1 µM [2]: 3.47%
inhibition at 3 µM [2]: 3.67%
mutagenicity ([3]; TA1535, +S9, 62 μg/dish): −
mutagenicity ([3]; TA1535, +S9, 185 μg/dish): −
mutagenicity ([3]; TA1535, +S9, 556 μg/dish): −
mutagenicity ([3]; TA1535, +S9, 1667 μg/dish): −
mutagenicity ([3]; TA1535, +S9, 5000 μg/dish): −
mutagenicity ([3]; TA1535, −S9, 62 μg/dish): −
mutagenicity ([3]; TA1535, −S9, 185 μg/dish): −
mutagenicity ([3]; TA1535, −S9, 556 μg/dish): −
mutagenicity ([3]; TA1535, −S9, 1667 μg/dish): −
mutagenicity ([3]; TA1535, −S9, 5000 μg/dish): −
AUC(0-inf) [4]: 119000 ng·h/mL
mutagenicity ([5]; TA1537, +S9, 62 μg/dish): −
mutagenicity ([5]; TA1537, +S9, 185 μg/dish): −
mutagenicity ([5]; TA1537, +S9, 556 μg/dish): −
mutagenicity ([5]; TA1537, +S9, 1667 μg/dish): −
mutagenicity ([5]; TA1537, +S9, 5000 μg/dish): −
mutagenicity ([5]; TA1537, −S9, 62 μg/dish): −
mutagenicity ([5]; TA1537, −S9, 185 μg/dish): −
mutagenicity ([5]; TA1537, −S9, 556 μg/dish): −
mutagenicity ([5]; TA1537, −S9, 1667 μg/dish): −
mutagenicity ([5]; TA1537, −S9, 5000 μg/dish): −
mutagenicity ([6]; TA100, +S9, 62 μg/dish): −
mutagenicity ([6]; TA100, +S9, 185 μg/dish): −
mutagenicity ([6]; TA100, +S9, 556 μg/dish): −
mutagenicity ([6]; TA100, +S9, 1667 μg/dish): −
mutagenicity ([6]; TA100, +S9, 5000 μg/dish): −
mutagenicity ([6]; TA100, −S9, 62 μg/dish): −
mutagenicity ([6]; TA100, −S9, 185 μg/dish): −
mutagenicity ([6]; TA100, −S9, 556 μg/dish): −
mutagenicity ([6]; TA100, −S9, 1667 μg/dish): −
mutagenicity ([6]; TA100, −S9, 5000 μg/dish): −
mutagenicity ([7]; TA102, +S9, 62 μg/dish): −
mutagenicity ([7]; TA102, +S9, 185 μg/dish): −
mutagenicity ([7]; TA102, +S9, 556 μg/dish): −
mutagenicity ([7]; TA102, +S9, 1667 μg/dish): −
mutagenicity ([7]; TA102, +S9, 5000 μg/dish): −
mutagenicity ([7]; TA102, −S9, 62 μg/dish): −
mutagenicity ([7]; TA102, −S9, 185 μg/dish): −
mutagenicity ([7]; TA102, −S9, 556 μg/dish): −
mutagenicity ([7]; TA102, −S9, 1667 μg/dish): −
mutagenicity ([7]; TA102, −S9, 5000 μg/dish): −
